Measurements from US8975263B2, “Phenylxanthene derivatives” (Daiichi Sankyo Company, Limited, priority 2013, dated 2015).

Each compound was assayed on C57BL/6J mice (assay: Oral glucose tolerance test). Conditions: male C57BL/6J mice, fasted overnight; oral gavage 10 mg/kg; solvent 0.5% MC; glucose 3 g/kg orally 30 minutes after compound; area under the curve of blood glucose level relative to control group.
Format: in vivo
Description: Commercially available mice (C57BL/6J mice; male; 8 to 12 weeks old when used; distributed by Charles River Laboratories Japan, Inc.) were used.
After acclimatization with freely feeding (FR-2, Funabashi Farm Co., Ltd.) for one week or more, the mice were fasted overnight and then used for the test. A 0.5% methylcellulose (Wako Pure Chemical Industries, Ltd.) solution (0.5% MC) containing a test compound at a concentration of 1 mg/ml and a mixed solution (PG:Tween) of propylene glycol (80 v/v %, Nacalai Tesque, Inc.) and Tween 80 (20 v/v %, Nacalai Tesque, Inc.) containing a test compound at a concentration of 2 mg/ml were prepared for administration to the mice. The prepared solution was administered by oral gavage to four or five mice in each group at a dose of 10 mg/kg as the test compound. For a control group, a 0.5% methylcellulose solution (dose: 10 ml/kg) or a mixed solution of propylene glycol and Tween 80 (dose: 5 ml/kg) was orally administered to mice. An oral glucose tolerance test was carried out by administering a glucose solution (Otsuka Glucose Solution 50%; Otsuka Pharmaceutical Factory, Inc.) orally at a dose of 3 g/kg to the mice 30 minutes after administration of the test compound.
Blood was collected from the tail vein of each mouse immediately before administration of the test compound (T0), […] after administration of the test compound (T1), and 30 minutes (T2) and 90 minutes (T3) after oral glucose loading. The blood glucose level was measured using a blood glucose level measuring apparatus (ACCU-CHEK Aviva; Roche Diagnostics, K.K.). The blood glucose level T1 was analyzed as a value obtained 30 minutes after administration of the compound and immediately before glucose loading. According to the following formula, the area under the curve of blood glucose level was calculated, and thereafter, the blood glucose lowering rate (%) was calculated as a value relative to the control group. The area under the curve of blood glucose level=[(blood glucose level T0+blood glucose level T1)×30]÷2+[(blood glucose level T1+blood glucose level T2)×30]÷2+[(blood glucose level T2+blood glucose level T3)×60]÷2 Blood glucose lowering rate(%)=[1−(the area under the curve of blood glucose level for the test compound group/the area under the curve of blood glucose level for the control group)]×100
With COc1ccc(-c2ccc(C)c(C(=O)NS(C)(=O)=O)n2)c(C)c1C1C2=C(CC(C)(C)CC2=O)OC2=C1C(=O)CC(C)(C)C2.COc1ccc(-c2ccc(C)c(C(=O)NS(C)(=O)=O)n2)c(C)c1C1C2=C(CC(C)(C)CC2=O)OC2=C1C(=O)CC(C)(C)C2.[Ca] [Example 21, 6-[4-Methoxy-2-methyl-3-(3,3,6,6-tetramethyl-1,8-dioxo-2,3,4,5,6,7,8,9-octahydro-1H-xanthen-9-yl)phenyl]-3-methyl-N-(methylsulfonyl)pyridine-2-carboxamide hemi-calcium salt] the “Blood glucose lowering rate (%)” value was 54%. For COc1ccc(-c2cc3c(c(C(=O)O)n2)CCCC3)c(C)c1C1C2=C(CC(C)(C)CC2=O)OC2=C1C(=O)CC(C)(C)C2 [Example 47, 3-[4-Methoxy-2-methyl-3-(3,3,6,6-tetramethyl-1,8-dioxo-2,3,4,5,6,7,8,9-octahydro-1H-xanthen-9-yl)phenyl]-5,6,7,8-tetrahydroisoquinoline-1-carboxylic acid], the “Blood glucose lowering rate (%)” value was 56%. With CCc1ccc(-c2ccc(OC)c(C3C4=C(CC(C)(C)CC4=O)OC4=C3C(=O)CC(C)(C)C4)c2C)nc1C(=O)O [Example 13, 3-Ethyl-6-[4-methoxy-2-methyl-3-(3,3,6,6-tetramethyl-1,8-dioxo-2,3,4,5,6,7,8,9-octahydro-1H-xanthen-9-yl)phenyl]pyridine-2-carboxylic acid] the “Blood glucose lowering rate (%)” value was 61%. For COc1ccc(-c2cccc(C(=O)NS(C)(=O)=O)n2)c(C)c1C1C2=C(CC(C)(C)CC2=O)OC2=C1C(=O)CC(C)(C)C2.COc1ccc(-c2cccc(C(=O)NS(C)(=O)=O)n2)c(C)c1C1C2=C(CC(C)(C)CC2=O)OC2=C1C(=O)CC(C)(C)C2.[Ca] [Example 20, 6-[4-Methoxy-2-methyl-3-(3,3,6,6-tetramethyl-1,8-dioxo-2,3,4,5,6,7,8,9-octahydro-1H-xanthen-9-yl)phenyl]-N-(methylsulfonyl)pyridine-2-carboxamide hemi-calcium salt], the “Blood glucose lowering rate (%)” value was 41%. With COc1ccc(-c2ccc(C)c(C(=O)O)n2)cc1C1C2=C(CC(C)(C)CC2=O)OC2=C1C(=O)CC(C)(C)C2 [Example 30, 6-[4-Methoxy-3-(3,3,6,6-tetramethyl-1,8-dioxo-2,3,4,5,6,7,8,9-octahydro-1H-xanthen-9-yl)phenyl]-3-methylpyridine-2-carboxylic acid] the “Blood glucose lowering rate (%)” value was 55%. With COc1ccc(-c2ccc(N)c(C(=O)O)n2)c(C)c1C1C2=C(CC(C)(C)CC2=O)OC2=C1C(=O)CC(C)(C)C2 [Example 48, 3-Amino-6-[4-methoxy-2-methyl-3-(3,3,6,6-tetramethyl-1,8-dioxo-2,3,4,5,6,7,8,9-octahydro-1H-xanthen-9-yl)phenyl]pyridine-2-carboxylic acid] the “Blood glucose lowering rate (%)” value was 62%. COc1ccc(-c2cc(C)cc(C(=O)O)n2)c(C)c1C1C2=C(CC(C)(C)CC2=O)OC2=C1C(=O)CC(C)(C)C2 [Example 32, 6-[4-Methoxy-2-methyl-3-(3,3,6,6-tetramethyl-1,8-dioxo-2,3,4,5,6,7,8,9-octahydro-1H-xanthen-9-yl)phenyl]-4-methylpyridine-2-carboxylic acid] was tested, and the “Blood glucose lowering rate (%)” value was 59%. For CC(C)(C)N.COc1ccc(-c2ccc(C)c(C(=O)NS(C)(=O)=O)n2)c(C)c1C1C2=C(CC(C)(C)CC2=O)OC2=C1C(=O)CC(C)(C)C2 [Example 41, 6-[4-Methoxy-2-methyl-3-(3,3,6,6-tetramethyl-1,8-dioxo-2,3,4,5,6,7,8,9-octahydro-1H-xanthen-9-yl)phenyl]-3-methyl-N-(methylsulfonyl)pyridine-2-carboxamide 2-methylpropan-2-amine salt], the “Blood glucose lowering rate (%)” value was 44%. In the case of C#Cc1ccc(-c2ccc(OC)c(C3C4=C(CC(C)(C)CC4=O)OC4=C3C(=O)CC(C)(C)C4)c2C)nc1C(=O)O [Example 12, 3-Ethynyl-6-[4-methoxy-2-methyl-3-(3,3,6,6-tetramethyl-1,8-dioxo-2,3,4,5,6,7,8,9-octahydro-1H-xanthen-9-yl)phenyl]pyridine-2-carboxylic acid], the “Blood glucose lowering rate (%)” value is reported as 31%. COc1ccc(-c2cc(C)cc(C(=O)NS(C)(=O)=O)n2)c(C)c1C1C2=C(CC(C)(C)CC2=O)OC2=C1C(=O)CC(C)(C)C2 [Example 40, 6-[4-Methoxy-2-methyl-3-(3,3,6,6-tetramethyl-1,8-dioxo-2,3,4,5,6,7,8,9-octahydro-1H-xanthen-9-yl)phenyl]-4-methyl-N-(methylsulfonyl)pyridine-2-carboxamide] was tested, and the “Blood glucose lowering rate (%)” value was 38%. In the case of COCCOc1ccc(-c2ccc(OC)c(C3C4=C(CC(C)(C)CC4=O)OC4=C3C(=O)CC(C)(C)C4)c2C)nc1C(=O)O [Example 29, 3-(2-Methoxyethoxy)-6-[4-methoxy-2-methyl-3-(3,3,6,6-tetramethyl-1,8-dioxo-2,3,4,5,6,7,8,9-octahydro-1H-xanthen-9-yl)phenyl]pyridine-2-carboxylic acid], the “Blood glucose lowering rate (%)” value is reported as 32%. For CC(C)(C)N.COc1ccc(-c2cccc(C(=O)NS(C)(=O)=O)n2)c(C)c1C1C2=C(CC(C)(C)CC2=O)OC2=C1C(=O)CC(C)(C)C2 [Example 18, 6-[4-methoxy-2-methyl-3-(3,3,6,6-tetramethyl-1,8-dioxo-2,3,4,5,6,7,8,9-octahydro-1H-xanthen-9-yl)phenyl]-N-(methylsulfonyl)pyridine-2-carboxamide 2-methylpropan-2-amine salt], the “Blood glucose lowering rate (%)” value was 31%. COc1ccc(-c2ccc(C)c(C(=O)NS(C)(=O)=O)n2)cc1C1C2=C(CC(C)(C)CC2=O)OC2=C1C(=O)CC(C)(C)C2 [Example 31, 6-[4-Methoxy-3-(3,3,6,6-tetramethyl-1,8-dioxo-2,3,4,5,6,7,8,9-octahydro-1H-xanthen-9-yl)phenyl]-3-methyl-N-(methylsulfonyl)pyridine-2-carboxamide] was tested, and the “Blood glucose lowering rate (%)” value was 42%. For COc1ccc(-c2nc(C(=O)O)ccc2C)c(C)c1C1C2=C(CC(C)(C)CC2=O)OC2=C1C(=O)CC(C)(C)C2 [Example 34, 6-[4-Methoxy-2-methyl-3-(3,3,6,6-tetramethyl-1,8-dioxo-2,3,4,5,6,7,8,9-octahydro-1H-xanthen-9-yl)phenyl]-5-methylpyridine-2-carboxylic acid], the “Blood glucose lowering rate (%)” value was 58%. In the case of COc1ccc(-c2ccc(C)c(C(=O)NS(C)(=O)=O)n2)c(C)c1C1C2=C(CC(C)(C)CC2=O)OC2=C1C(=O)CC(C)(C)C2 [Example 16, 6-[4-Methoxy-2-methyl-3-(3,3,6,6-tetramethyl-1,8-dioxo-2,3,4,5,6,7,8,9-octahydro-1H-xanthen-9-yl)phenyl]-3-methyl-N-(methylsulfonyl)pyridine-2-carboxamide], the “Blood glucose lowering rate (%)” value is reported as 45%. With COc1ccc(-c2ccc(N)c(C(=O)NS(C)(=O)=O)n2)c(C)c1C1C2=C(CC(C)(C)CC2=O)OC2=C1C(=O)CC(C)(C)C2 [Example 49, 3-Amino-6-[4-methoxy-2-methyl-3-(3,3,6,6-tetramethyl-1,8-dioxo-2,3,4,5,6,7,8,9-octahydro-1H-xanthen-9-yl)phenyl]-N-(methylsulfonyl)pyridine-2-carboxamide] the “Blood glucose lowering rate (%)” value was 34%.

Same assay, conditions: male C57BL/6J mice, fasted overnight; oral gavage 10 mg/kg; solvent PG:Tween; glucose 3 g/kg orally 30 minutes after compound; area under the curve of blood glucose level relative to control group
For COc1ccc(-c2cccc(C(=O)NS(C)(=O)=O)n2)cc1C1C2=C(CC(C)(C)CC2=O)OC2=C1C(=O)CC(C)(C)C2 [Example 5, 6-[4-Methoxy-3-(3,3,6,6-tetramethyl-1,8-dioxo-2,3,4,5,6,7,8,9-octahydro-1H-xanthen-9-yl)phenyl]-N-(methylsulfonyl)pyridine-2-carboxamide], the “Blood glucose lowering rate (%)” value was 43%. COc1ccc(-c2cccc(C(=O)NS(C)(=O)=O)n2)c(C)c1C1C2=C(CC(C)(C)CC2=O)OC2=C1C(=O)CC(C)(C)C2 [Example 9, 6-[4-Methoxy-2-methyl-3-(3,3,6,6-tetramethyl-1,8-dioxo-2,3,4,5,6,7,8,9-octahydro-1H-xanthen-9-yl)phenyl]-N-(methylsulfonyl)pyridine-2-carboxamide] was tested, and the “Blood glucose lowering rate (%)” value was 42%. In the case of COc1ccc(-c2ccc(C)c(C(=O)O)n2)c(C)c1C1C2=C(CC(C)(C)CC2=O)OC2=C1C(=O)CC(C)(C)C2 [Example 10, 6-[4-Methoxy-2-methyl-3-(3,3,6,6-tetramethyl-1,8-dioxo-2,3,4,5,6,7,8,9-octahydro-1H-xanthen-9-yl)phenyl]-3-methylpyridine-2-carboxylic acid], the “Blood glucose lowering rate (%)” value is reported as 55%. In the case of CCOc1ccc(-c2ccc(OC)c(C3C4=C(CC(C)(C)CC4=O)OC4=C3C(=O)CC(C)(C)C4)c2C)nc1C(=O)O [Example 28, 3-Ethoxy-6-[4-methoxy-2-methyl-3-(3,3,6,6-tetramethyl-1,8-dioxo-2,3,4,5,6,7,8,9-octahydro-1H-xanthen-9-yl)phenyl]pyridine-2-carboxylic acid], the “Blood glucose lowering rate (%)” value is reported as 60%.
